From US11008325B2, “Inhibitors of cancer invasion, attachment, and/or metastasis” (VIRGINIA COMMONWEALTH UNIVERSITY, priority 2016, dated 2021)
“Also recorded” adds a separate entry of the source.

Legend:
[1] = target: MDA-9/Syntenin PDZ2 only domain (Homo sapiens, UniProt O00560); test: NMR [15N,1H] HSQC binding, counter domain; details: up to 100 μM compound, 20 μM protein
Procedure: FIG. 52. Left panel, Docked structure of compound 113B7 on the surface of MDA-9/Syntenin. The docked structure is supported by NMR chemical shift mapping data. The titration (see later in FIG. 55 for chemical shift mapping and titration) allows for the calculation of an upper limit for the dissociation constant of the complex, Kd<10 μM. […] The [^15N,^1FI]-HSQC spectra of MDA-9/Syntenin PDZ2 only domain are reported in the top right panel (apo at 20 μM; in presence of 100 μM 113B7). In the bottom right panel can be seen the spectra of the PDZ domain from X11/mint scaffold protein (33% identity with PDZ1) are reported in absence (20 μM protein) and in presence of 100 μM 113B7.
Based on these studies and NMR guided initial docking calculations, >50 bi-dentate compounds were synthesized and tested, leading to compound 113B7 (FIG. 52). […] Moreover, as a way to further address specificity of our ligands, we also tested the most promising compounds against two closely related domains to the PDZs of MDA-9/Syntenin, such as the PDZ tandem protein Harmonin (36% identity to PDZ2 of MDA-9/Syntenin and 31% to PDZ1 of MDA-9/syntenin) or PDZ domain from X11/mint scaffold protein (33% identity with PDZ1), and no significant binding to these counter-screen proteins was observed (FIG. 52).

[2] = migration (SAR, Table 4); format: cell-based
[3] = tested on: U1242 cells; test: Proteome Profiler Human Protease Array of conditioned media after radiation; format: cell-based; details: 50 μM PDZ1i 2 hrs prior to radiation
Procedure: FIGS. 10A-10L, PDZ1i inhibits key invasion proteins. U1242 cells were treated with either DMSO or 50 μM PDZ1i 2 hrs prior to radiation in serum-free media. After 48 hrs, media was collected analyzed via the Proteome Profiler Human Protease Array Kit (R&D Systems). Relative protein amounts of the indicated proteins were quantified via ImageJ. FIG. 10A, MMP1; FIG. 10B, MMP2; FIG. 10C, MMP3; FIG. 10D, MMP8; FIG. 10E, MMP9; FIG. 10F, MMP13; FIG. 10G. Cathepsin A; FIG. 10H, Cathepsin B; FIG. 10I, Cathepsin C; FIG. 10J, Cathepsin S; FIG. 10K, Cathepsin V; FIG. 10L, ASAM9.
Radiation can enhance the release of important enzymes, including those involved in invasion such as the matrix metalloproteinase family (MMP). We therefore determined if PDZ1i could affect the secretion of invasion-related proteins following radiation therapy. U1242 cells were treated for 2 hours prior to radiation therapy, and their media collected after 48 hours. […]
CM was harvested from an overnight culture of plated cells in serum-free DMEM+F12 media, filtered with […] filters and further concentrated 10-fold on an Amicon Ultra centrifugal filter—3K (Millipore, Billerica, Mass.). Protein levels were analyzed via the Proteome Profiler Human Protease Array Kit (R&D Systems, Minneapolis, Minn.). Relative quantification was performed by densitometry evaluation. X-ray films were scanned and analyzed with ImageJ software (NIH).

[4] = tested on: MMP-2 and MMP-9; test: western blotting and gelatin zymography of conditioned media; format: cell-based; details: 50 μM, 24 h

Chain of MDA-9/Syntenin PDZ2 only domain (O00560 198-273 limits assumed): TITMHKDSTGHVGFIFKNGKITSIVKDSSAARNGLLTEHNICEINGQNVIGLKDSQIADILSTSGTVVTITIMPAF

## Cc1cc(NC(=O)c2nc3[nH]c4c(c(=O)n3n2)CCC4)c(C)cc1NC(=O)CCc1nnc(-c2ccccc2)o1 [113B7, N-(2,5-dimethyl-4-(3-(5-phenyl-1,3,4-oxadiazol-2-yl)propanamido)phenyl)-8-oxo-5,6,7,8-tetrahydro-4H-cyclopenta[d][1,2,4]triazolo[1,5-a]pyrimidine-2-carboxamide]
[1]
  binding to PDZ2 domain: does not bind appreciably; also recorded: does not appreciably bind; also recorded: do not significantly bind
[2]
  % migr.: 62%
[3]
  radiation gains in Cathepsin family members and ADAM9: eliminated these gains
[3]; media after 48 hrs
  secreted MMP levels (MMP2, MMP9) after radiation: reduced the levels
[4]
  MMP-2 and MMP-9 protein and activity level: downregulates
